This passage reports IC50 results from ChEMBL document CHEMBL4393720, “Design, synthesis and biological evaluation of bromophenol-thiazolylhydrazone hybrids inhibiting the interaction of translation initiation factors eIF4E/eIF4G as multifunctional agents for cancer treatment” (Eur J Med Chem, 2019).

What is called IC50 is the concentration that gives 50% inhibition.

The structures appear in SMILES notation. A value given as a limit tells only on which side of the number the result lay.

The test system of one assay is HUVEC. The assay can be described thus: Antiproliferative activity against human HUVEC cells assessed as inhibition of cell growth incubated for 48 hrs by MTT assay. The class given is cell-based. On the technique in general: Tetrazolium assays rely on reduction of a dye to a coloured formazan, in cell work by metabolically active cells.
For a further assay, the system named is A549. As to the kind of experiment: Antiproliferative activity against human A549 cells assessed as inhibition of cell growth incubated for 48 hrs by MTT assay. Format: functional, cell-based. To be noted: A549, 48 h.
A further assay relates to U-87 MG. As to the kind of experiment: Antiproliferative activity against human U87MG cells assessed as inhibition of cell growth incubated for 48 hrs by MTT assay. The class given is functional, cell-based, U-87MG ATCC.
For a further assay, the system named is Caco-2. The assay can be described thus: Antiproliferative activity against human Caco2 cells assessed as inhibition of cell growth incubated for 48 hrs by MTT assay. The class given is functional, cell-based. To be noted: Caco-2, 48 h.
The subject of another assay is HepG2. As to the kind of experiment: Antiproliferative activity against human HepG2 cells assessed as inhibition of cell growth incubated for 48 hrs by MTT assay. The class given is functional, cell-based. The settings on record: HepG2, 48 h.

For the compound `COc1cc(/C=N/Nc2nc(-c3ccc(C(F)(F)F)cc3)cs2)c(Br)c(Br)c1OC`, the IC50 with HUVEC was greater than 100 µM; in the assay on A549, 17.6 µM; with U-87 MG, greater than 100 µM; with Caco-2, greater than 100 µM; in the assay on HepG2 it was greater than 100 µM.
As for `Fc1ccc(/C=N/Nc2nc(-c3ccc(F)c(F)c3)cs2)cc1F`, the IC50 came out at 59.7 µM in the assay on HUVEC; 8.49 µM in the assay with A549; 43.9 µM in the assay with U-87 MG; 14.2 µM in the assay with Caco-2; 26.6 µM in the assay on HepG2.
For the compound `COc1cc(/C=N/Nc2nc(-c3cccc(Br)c3)cs2)cc(Br)c1OC`, the half-maximal inhibitory concentration (IC50) was greater than 100 µM in the assay on HUVEC; 56 µM in the assay with A549; 86.3 µM with U-87 MG; 43.4 µM in the assay with Caco-2; 66.2 µM in the assay with HepG2.
On to `Fc1ccc(/C=N/Nc2nc(-c3cc(C(F)(F)F)cc(C(F)(F)F)c3)cs2)cc1F`, for which the IC50 was greater than 100 µM in the assay on HUVEC; 6.23 µM in the assay on A549; 29.7 µM with U-87 MG; 62.8 µM in the assay on Caco-2; 16.7 µM in the assay with HepG2.
Take `COc1cc(/C=N/Nc2nc(-c3cccc(Br)c3)cs2)c(Br)c(Br)c1OC`: the IC50 is greater than 100 µM in the assay with HUVEC; 37 µM with A549; 27.6 µM with U-87 MG; greater than 100 µM in the assay on Caco-2; greater than 100 µM in the assay with HepG2.
For `COc1cc(/C=N/Nc2nc(-c3ccc(F)c(F)c3)cs2)cc(Br)c1OC`, the IC50 is greater than 100 µM in the assay on HUVEC; 21.1 µM in the assay on A549; 26.3 µM in the assay with U-87 MG; 21.2 µM with Caco-2; 22.4 µM in the assay on HepG2.
Turning to `COc1cc(/C=N/Nc2nc(-c3ccccc3)cs2)cc(Br)c1OC`, the IC50 in the assay with HUVEC is greater than 100 µM; in the assay on A549 it was 40 µM; in the assay on U-87 MG, 74.1 µM; in the assay on Caco-2, 64.2 µM; with HepG2, 68.3 µM.
The matching figures for `Fc1ccc(/C=N/Nc2nc(-c3ccccc3)cs2)cc1F`: greater than 100 µM, 91.4 µM, greater than 100 µM, 20.9 µM and greater than 100 µM.
For the compound `COc1cc(/C=N/Nc2nc(-c3cc(C(F)(F)F)cc(C(F)(F)F)c3)cs2)c(Br)c(Br)c1OC`, the IC50 in the assay with HUVEC, in the assay on A549, in the assay on U-87 MG, in the assay on Caco-2 and with HepG2 was greater than 100 µM each time.
As to `Fc1ccc(/C=N/Nc2nc(-c3ccc(Br)cc3)cs2)cc1F`, the IC50 with HUVEC was greater than 100 µM; with A549, greater than 100 µM; with U-87 MG, greater than 100 µM; in the assay with Caco-2 it was 43.9 µM; in the assay on HepG2, greater than 100 µM.
With `COc1cc(/C=N/Nc2nc(-c3ccc(F)c(F)c3)cs2)c(Br)c(Br)c1OC`, the IC50 amounted to 54.7 µM in the assay with HUVEC; 8.38 µM in the assay with A549; 19.6 µM with U-87 MG; 22.8 µM in the assay with Caco-2; 49.7 µM in the assay with HepG2.
Turning to `COc1ccccc1-c1csc(N/N=C/c2ccc(F)c(F)c2)n1`, the IC50 in the assay with HUVEC was greater than 100 µM; with A549 it was 61.3 µM; in the assay with U-87 MG, 40.6 µM; with Caco-2 it was 25.2 µM; in the assay with HepG2, greater than 100 µM.
`COc1cc(/C=N/Nc2nc(-c3ccccc3)cs2)c(Br)c(Br)c1OC`: the IC50 is greater than 100 µM with HUVEC; 15.3 µM with A549; 20.1 µM in the assay on U-87 MG; 26.5 µM in the assay with Caco-2; 33.6 µM with HepG2.
Take `COc1cc(/C=N/Nc2nc(-c3ccc(Br)cc3)cs2)c(Br)c(Br)c1OC`: the IC50 is greater than 100 µM in the assay with HUVEC; 46.1 µM in the assay with A549; greater than 100 µM with U-87 MG; greater than 100 µM with Caco-2; greater than 100 µM with HepG2.
For the compound `COc1cc(/C=N/Nc2nc(-c3cc(C(F)(F)F)cc(C(F)(F)F)c3)cs2)cc(Br)c1OC`, the IC50 in the assay on HUVEC is greater than 100 µM; with A549, 94.2 µM; in the assay with U-87 MG, greater than 100 µM; with Caco-2, greater than 100 µM; in the assay with HepG2, greater than 100 µM.
Consider `COc1cc(/C=N/Nc2nc(-c3ccc(Br)cc3)cs2)cc(Br)c1OC`, for which the IC50 in the assay with HUVEC was greater than 100 µM; in the assay with A549, 52.3 µM; with U-87 MG it was 27.9 µM; with Caco-2, 36.2 µM; in the assay with HepG2, 64.6 µM.
Turning to `COc1ccccc1-c1csc(N/N=C/c2cc(OC)c(OC)c(Br)c2Br)n1`, the IC50 in the assay on HUVEC was greater than 100 µM; in the assay on A549 it was 85.1 µM; in the assay on U-87 MG, greater than 100 µM; with Caco-2, greater than 100 µM; in the assay on HepG2, greater than 100 µM.
As for `O=C(O)/C(Cc1ccccc1[N+](=O)[O-])=N\Nc1nc(-c2ccc(Cl)c(Cl)c2)cs1`, the IC50 in the assay with HUVEC was 67.5 µM; in the assay on A549, 58.6 µM; in the assay with U-87 MG, 75 µM; in the assay on Caco-2, 44.7 µM; in the assay on HepG2 it was 36.9 µM.
`COc1cc(/C=N/Nc2nc(-c3ccc(C(F)(F)F)cc3)cs2)cc(Br)c1OC`: the IC50 in the assay on HUVEC was greater than 100 µM; with A549, 18.3 µM; with U-87 MG, 41 µM; in the assay with Caco-2 it was 65.9 µM; in the assay on HepG2 it was 31.2 µM.
For `COc1ccccc1-c1csc(N/N=C/c2cc(Br)c(OC)c(OC)c2)n1`, the IC50 in the assay with HUVEC is greater than 100 µM; in the assay with A549, 94.9 µM; in the assay with U-87 MG, greater than 100 µM; with Caco-2 it was greater than 100 µM; in the assay with HepG2 it was 82.1 µM.
For the compound `Fc1ccc(/C=N/Nc2nc(-c3cccc(Br)c3)cs2)cc1F`, the IC50 with HUVEC is greater than 100 µM; in the assay on A549, 16.2 µM; in the assay with U-87 MG, 39.9 µM; in the assay with Caco-2, 17.5 µM; in the assay on HepG2, 16.7 µM.
